PMC12397248, “Proanthocyanidins inhibit CYP1B1 through mixed-type kinetics and stable binding in molecular dynamics simulations” (Scientific Reports, 2025)
Each block holds one molecule with its values, some of them ahead of it.

Legend:
[1] = target: T1, Cytochrome P450 1B1 (CYP1B1) (Homo sapiens, UniProt Q16678); assay: recombinant human CYP1B1 ethoxyresorufin O-deethylation fluorescence assay; Michaelis-Menten and Lineweaver-Burk kinetics; assay type: biochemical
T1 sequence (Q16678 1-543): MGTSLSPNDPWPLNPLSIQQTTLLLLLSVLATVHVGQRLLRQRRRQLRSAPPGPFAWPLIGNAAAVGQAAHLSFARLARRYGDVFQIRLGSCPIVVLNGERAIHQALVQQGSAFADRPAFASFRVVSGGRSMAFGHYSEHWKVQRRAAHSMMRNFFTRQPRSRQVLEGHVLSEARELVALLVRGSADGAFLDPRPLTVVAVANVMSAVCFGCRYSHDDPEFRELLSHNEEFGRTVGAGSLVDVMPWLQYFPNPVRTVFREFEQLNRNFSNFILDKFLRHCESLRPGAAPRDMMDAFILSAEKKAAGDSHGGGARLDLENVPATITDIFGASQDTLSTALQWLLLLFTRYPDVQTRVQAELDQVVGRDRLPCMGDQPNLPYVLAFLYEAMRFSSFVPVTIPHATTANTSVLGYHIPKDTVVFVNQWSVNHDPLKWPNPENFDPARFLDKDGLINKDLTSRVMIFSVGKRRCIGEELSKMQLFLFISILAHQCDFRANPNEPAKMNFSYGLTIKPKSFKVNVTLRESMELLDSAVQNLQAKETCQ

[2] = substrate: CCOc1ccc2nc3ccc(=O)cc-3oc2c1; assay: Michaelis-Menten kinetics of O-deethylation by recombinant CYP1B1 (Km); assay type: biochemical, Homo sapiens; conditions: heme; NADPH

IC50 [1]: 2530 ± 10 nM
Molecule: proanthocyanidin [PA]

B1: Cytochrome P450 1B1 (CYP1B1) (Homo sapiens) (protein)
chain: T1 sequence (Q16678 1-543)
Km [2]: 236 ± 74 µM
